Values joined by “and” are separate entries in the source; they are usually repeats but may differ in a detail not shown here. Identical values can stand only once.
Test system: Glutathione (GSH)
Test: ELISA, GSH concentration
Type: cell-based, human
Procedure: The concentrations of matrix metalloproteinase-2 (MMP2), matrix metalloproteinase-9 (MMP9), Bcl2, BAX, P53, Malondialdehyde (MDA), Glutathione (GSH), caspase 8, caspase 9 and IL-6 were measured quantitatively in 5c treated MCF7 and HEP2 cells using ELISA (Enzyme-Linked Immunosorbent Assay) (Table 4). Gelatinases are a collective word for MMP-2 and MMP-9, where MMP-2 is gelatinase-A and MMP-9 is gelatinase-B. Solid tumor invasion, metastasis, and angiogenesis have long been linked to gelatinases (Das et al. [2021]). […] Bcl2 is a crucial protein that targets apoptosis inhibition. It is regarded as a predictive biomarker or therapeutic target in the diagnosis of cancer due to its broad expression in a variety of cancers (Porter et al. [2009]). […] The pro-apoptotic protein BAX permeabilizes the mitochondrial outer membrane by changing from a cytosolic monomer to a hazardous oligomer triggering the apoptosis process (Fulda and Debatin [2006]). […] P53 transcription factor performs an essential tumor suppressor role by coordinating a wide range of physiological responses, including DNA repair, cell cycle arrest, cellular senescence, cell death, cell differentiation, and metabolism (Liebl and Hofmann [2021]). It was activated in MCF7 and HEP2-treated cells with values (4.28 and 3.109 ng/mL), respectively, compared to their controls (3.44 and 2.06 ng/mL). […]

For `COc1ccc(NC(=O)COc2ccc(C=CC(=O)c3cccs3)cc2)cc1` [Compound 5c, N-(4-Methoxyphenyl)-2-(4-(3-oxo-3-(thiophen-2-yl)prop-1-en-1-yl)phenoxy)acetamide], the GSH concentration (5c treated HEP2 cells, untreated 0.668±0.010) was 0.821 ng/mL and 0.821 ± 0.009 ng/mL and the GSH concentration (5c treated MCF7 cells, untreated 0.737±0.009) was 0.939 ng/mL and 0.939 ± 0.022 ng/mL.

From PMC11582173, “Synthesis, cytotoxicity, anti-inflammatory, anti-metastatic and anti-oxidant activities of novel chalcones incorporating 2-phenoxy-N-arylacetamide and thiophene moieties: induction of apoptosis in MCF7 and HEP2 cells” (Naunyn-Schmiedeberg's Archives of Pharmacology, 2024)
